Test results from publication PMC7432838, “A Curcumin Analog Exhibits Multiple Biologic Effects on the Pathogenesis of Alzheimer’s Disease and Improves Behavior, Inflammation, and β-Amyloid Accumulation in a Mouse Model” (International Journal of Molecular Sciences, 2020).

What was measured:
3xTg AD transgenic mice = test: Morris water maze test in 3xTg AD transgenic mice; type: in vivo, mouse; settings: 150 mg/kg/day in diet for four months; six-month-old 3xTg AD mice; vs vehicle control
Method: (§1) The triplex transgenic mouse model (3xTg-AD, APP Swedish, MAPT P301L, and PSEN1 M146V) was adopted as the AD model and bred at the laboratory animal center of National Cheng Kung University (NCKU), Tainan, Taiwan. The mice were housed in a room maintained on a 12 h light–dark cycle and fed ad libitum. Six-month old 3xTg-AD mice were used for animal experiments. Experimental procedures for handling the mice were in accordance with the guidelines of the Institutional Animal Care and Use Committee (IACUC) of NCKU. These mice develop plaques and tangles pathology. Aβ deposition is progressive, and deposition appears as early as nine months for triplex-Tg mice. The AD transgenic mice were fed with the control diet (Laboratory Rodent Diet 5001, LabDiet, St. Louis, MO, USA), the control diet plus traditional curcumin (150 mg/kg), or the control diet plus TML-6 (150 mg/kg) for four months. Diets were stored at 4 °C and were added to mouse cage twice a week. The quantity of the diet consumed by the mice was determined daily. The concentration of curcumin and TML-6 in the diet was determined to be around 1.20 mg/g of diet after assaying by HPLC by the Development Center for the Biotechnology (DCB), Taipei, Taiwan.
For assessing spatial learning and memory, the Morris water maze was used as we described before. […] The time taken to reach the platform was recorded as escape latency.

[1] = test system: Iba-1 (microglial activation marker) in 3xTg AD mouse hippocampus; test: Immunofluorescence staining of Iba-1 in brain of 3xTg AD mice; type: in vivo; settings: 150 mg/kg/day in diet for four months
Method: as §1, with “The AD transgenic mice were fed with the control diet (Laboratory Rodent Diet 5001, LabDiet, St. Louis, MO, USA), the control diet plus traditional curcumin (150 mg/kg), or the control diet plus TML-6 (150 mg/kg) for four months. Diets were stored at 4 °C and were added to mouse cage twice a week.” left out
(§2) Mice were anesthetized using pentobarbital (60 mg/kg, intravenous) and then transcardial perfusion was performed with 0.01 M PBS (pH 7.4). […] Images were captured by the TissureFAXS microscopy system and positive signals were quantified by TissueQuest software module (TissueGnostic, Vienne, Austria).

[2] = test system: phospho-NF-κB in Huh-7 cells; test: Western blotting of phosphorylated NF-κB; type: cell-based, human; settings: 10 µg/mL, 24 h, vs medium control
Method: (§3) After cells were seeded and treated with curcumin and TML-6 for 24 h, cells were washed with ice-cold PBS (Phosphate Buffered Saline) and lysed with 100 μL of RIPA cell lysis buffer (Pierce Biotechnology, Rockford, IL, USA) supplemented with protease and phosphatase inhibitors (Roche Diagnostics, Mannheim, Germany). Cell lysates were further cleaned by centrifugation at 14,000 rpm at 4 °C for 15 min. Protein concentration was determined using a Bradford assay (Bio-Rad, Hercules, CA, USA). For Western blot analysis, 20 μg of each sample was prepared for SDS-PAGE (SDS Poly-acrylamide-gel-electrophoresis) and denatured at 95 ℃ for 10 min. The samples prepared from total lysates were loaded and separated by SDS-PAGE (8% or 10%), and then transferred to PVDF membranes (pore size 0.45 μm; PerkinElmer, Waltham, MA, USA) by semi-dry transfer cell (Bio-Rad). After blocking with 5% skim milk in PBS-T (0.1% Tween-20), the membranes were hybridized with primary antibodies at 1/1000 dilution at 4 °C overnight. On the next day, membranes were washed with PBS-T followed by incubation with HRP-conjugated anti-mouse or anti-rabbit secondary antibody (DAKO, Santa Clara, CA, USA) at 1/5000 dilution at room temperature for 1 h as appropriate. […]

Huh-7 cells = test: Cytotoxicity assay by Cell Counting Kit-8 (CCK-8); type: cell-based, human; settings: Huh-7, 24 h
Method: The cytotoxicity assay was performed using the Cell Counting Kit-8 (CCK-8, Sigma). We dissolved 0.0524 g of TML-6 (molecular weight is 523.62 g/mol) in 10 mL DMSO to obtain TML-6 stock at 10 mM for cell line study. […] Briefly, Huh-7 cells were seeded overnight in 96-well plates at 5000 cells/well and then subjected to traditional curcumin or TML-6 treatment for 24 h. At each time point, a CCK-8 solution (0.25 mg/mL) was added to the medium in each well for an additional 4 h incubation, and absorbance was measured at 570 nm using an ELISA reader.

[3] = Pharmacokinetic study after oral administration in SD rats; type: in vivo, rat; settings: SD rats, oral 150 mg/kg
Method: In order to evaluate the bioavailability of curcumin and its analog TML-6, pharmacokinetic studies were commissioned and conducted by the Development Center for Biotechnology (DCB, Taipei, Taiwan). The kinetics of curcumin and TML-6 in blood were collected at 0.25, 0.5, 1, 2, 4, 6, 8 and 10 h after oral administration of curcumin and TML-6 at the dose of 150 mg/kg in male Sprague–Dawley Rats.

N2a/APPswe stable cells = test: Cell viability/morphology by micrographs during Aβ ELISA treatment; type: cell-based, mouse; settings: 24 h
Method: (§4) Extracellular levels of soluble Aβ40 and Aβ42 were determined by LEGEND MAX™ β-Amyloid x-40 and X-42 ELISA Kit (Biolegend, San Diego, CA, USA). Overexpression of the APP Swedish mutation (APPswe) in the N2a neuronblastoma cell line was called the N2a/APPswe cell line. N2a/APPswe stable cells were seeded at 8 × 10^5 cells in 6 cm dishes. After overnight incubation, the cells were treated with curcumin and TML-6 for 24 h. […] The culture supernatant was collected and centrifuged at 1500× g at 4 °C for 5 min to remove cells. The culture supernatants from various treatments were conducted to examine the Aβ levels according to the manufacturer’s instructions. The samples for the detection of soluble Aβ levels were diluted in the supernatant at a 1:10 dilution for this experiment. Levels of soluble Aβ were detected by measuring the OD at 620 nm (Molecular Devices, San Jose, CA, USA). The calculation of Aβ levels was based on the standard curves of Aβ40 and Aβ42, respectively.

[4] = test system: Aβ42 production in N2a/APPswe stable cells; test: Aβ42 ELISA of culture medium; type: cell-based, mouse; settings: different doses up to 20 µg/mL, 24 h
Method: as §4

[5] = test system: rat neuroblastoma B104-APP751 stable cell line; design: method as in PMID 20622013; settings: 15 and 20 μM, no cytotoxicity; cited from earlier work
[6] = test system: Aβ in 3xTg AD mouse brain; test: Immunofluorescence staining of Aβ in brain of 3xTg AD mice; type: in vivo; settings: 150 mg/kg/day in diet for four months
Method: as §1, with “The AD transgenic mice were fed with the control diet (Laboratory Rodent Diet 5001, LabDiet, St. Louis, MO, USA), the control diet plus traditional curcumin (150 mg/kg), or the control diet plus TML-6 (150 mg/kg) for four months. Diets were stored at 4 °C and were added to mouse cage twice a week.” left out
as §2

[7] = test system: phospho-mTOR in Huh-7 cells; test: Western blotting of phospho-mTOR; type: cell-based, human; settings: Huh-7, 24 h
Method: After cells were seeded and treated with curcumin and TML-6 for 24 h, cells were washed with ice-cold PBS (Phosphate Buffered Saline) and lysed with 100 μL of RIPA cell lysis buffer (Pierce Biotechnology, Rockford, IL, USA) supplemented with protease and phosphatase inhibitors (Roche Diagnostics, Mannheim, Germany). Cell lysates were further cleaned by centrifugation at 14,000 rpm at 4 °C for 15 min. Protein concentration was determined using a Bradford assay (Bio-Rad, Hercules, CA, USA). For Western blot analysis, 20 μg of each sample was prepared for SDS-PAGE (SDS Poly-acrylamide-gel-electrophoresis) and denatured at 95 ℃ for 10 min. The samples prepared from total lysates were loaded and separated by SDS-PAGE (8% or 10%), and then transferred to PVDF membranes (pore size 0.45 μm; PerkinElmer, Waltham, MA, USA) by semi-dry transfer cell (Bio-Rad). After blocking with 5% skim milk in PBS-T (0.1% Tween-20), the membranes were hybridized with primary antibodies at 1/1000 dilution at 4 °C overnight. On the next day, membranes were washed with PBS-T followed by incubation with HRP-conjugated anti-mouse or anti-rabbit secondary antibody (DAKO, Santa Clara, CA, USA) at 1/5000 dilution at room temperature for 1 h as appropriate. Finally, the images were captured by Amersham Imager 600 (GE Healthcare Life Sciences, Marlborough, MA, USA) after being developed using the chemiluminescent HRP substrate (Millipore, Bedford, MA, USA). The primary antibodies used in this study were anti-APP, anti-NF-κB (Cell Signaling Technology, Danvers, MA, USA), anti-Apo E, anti-p-mTOR (Abcam, Cambridge, MA, USA).

[8] = test system: human neuroglioma H4-APP751 stable cell line; design: method as in PMID 20622013; settings: 15 and 20 μM, no cytotoxicity; cited from earlier work
[9] = test system: APP (amyloid precursor protein) in Huh-7 cells; test: Western blotting of APP protein expression; type: cell-based, human; settings: 5 µg/mL, 24 h, vs medium control
Method: as §3

[10] = Water solubility (preformulation, preliminary studies); type: physicochemical; settings: unformulated
Method: The active pharmaceutical ingredients of TML-6 were synthesized and physico-chemical properties were characterized by SinoPharm Pharmaceutical Company (SPT), Tainan, Taiwan. Preformulation studies on the solubility of TML-6 were conducted by Value Pharmaceutical Services (VPS) Company, Jiansu, China. All the data in this study were conducted using unformulated TML-6. Formulation to optimize the solubility and permeability of TML-6 is under development for toxicological studies.

[11] = test system: Aβ40 production in N2a/APPswe stable cells; test: Aβ40 ELISA of culture medium; type: cell-based, mouse; settings: different doses up to 20 µg/mL, 24 h
Method: as §4

**Q.** With curcumin [reference compound] as the substance, how does the “learning behavior in Morris water maze (in words)” value (3xTg AD transgenic mice) read?
**A.** no significant difference

**Q.** And the “Iba-1 expression vs vehicle (in words)” value [1]?
**A.** no significant change

**Q.** What about the “decrease of phosphorylated NF-κB level” value [2] of the same substance?
**A.** 35%

**Q.** What about the IC50 (Huh-7 cells) of the same substance?
**A.** 60 µM

**Q.** What about the “cytotoxicity (CCK-8)” value (Huh-7 cells; up to highest concentration of 20 µg/mL) of the same substance?
**A.** no obvious cytotoxicity

**Q.** And the “blood concentrations at each time point” value [3]?
**A.** not detectable

**Q.** What about the “highest dose, at which cytotoxicity was seen (micrographs)” value (N2a/APPswe stable cells) of the same substance?
**A.** 20 µg/mL

**Q.** And the “Aβ42 level vs control (in words)” value [4]?
**A.** increased to levels higher than those of the control

**Q.** What about the “Aβ40 and Aβ42 levels (in words)” value [5] of the same substance?
**A.** significantly decreased

**Q.** And the “Aβ expression in brain vs vehicle (in words)” value [6]?
**A.** trend of reduction but without significant differences

**Q.** What about the “phospho-mTOR suppression (Western blot, in words)” value [7] of the same substance?
**A.** suppressed in a dose-dependent manner

**Q.** What about the “Aβ40 and Aβ42 levels (in words)” value [8] of the same substance?
**A.** significantly decreased

**Q.** And the “reduction of APP protein expression level” value [9]?
**A.** 30%

**Q.** And the water solubility [10]?
**A.** less than 0.1 mg/mL

**Q.** And the “Aβ40 level vs control (in words)” value [11]?
**A.** increased to levels higher than those of the control
